From ChEMBL document CHEMBL1142690, “Synthesis of NO-donor bisphosphonates and their in-vitro action on bone resorption” (J Med Chem, 2005)

Experiments:
[1] = Dissociation constant determined by the pH-metric method; assay type: functional
[2] = test system: RAW264.7; experiment: Effect of compound on osteoclasts formation (compound concentration of 100 nM, RANKL at 50 ng/ml and ODQ at 10 uM) as observed in clonal RAW264.7 cells; assay type: functional, Mus musculus
[3] = test system: RAW264.7; experiment: Effect of compound on osteoclasts formation (compound concentration of 100 nM and RANKL at 50 ng/ml) as observed in clonal RAW264.7 cells; assay type: functional, Mus musculus
[4] = species on record: Rattus norvegicus; experiment: Effect of compound on osteoclasts formation at concentration of 100 nM in rat femurs; assay type: functional, Femur
[5] = test system: Rattus; experiment: Effect of compound on osteoclast resorption activity at concentration of 100 nM in rat femur; assay type: functional
[6] = Affinity for hydroxyapatite after 24 hours; assay type: functional
[7] = test system: Rattus; experiment: Effect of compound on osteoclast resorption activity at concentration of 100 nM in rat femurs; assay type: functional, Femur

Structure (SMILES) | pKa1 [1] | pKa2 [1] | pKa3 [1] | pKa4 [1] | Count [2] | Count [3] | Count [4] | Ratio [5] | Affinity [6] | Ratio [7]
O=[N+]([O-])OCCCCC(P(=O)(O)O)P(=O)(O)O | < 1.5 | 3.08 | 6.87 | 11.5 | 58.9 | 40.2 | 21.88 | 1.18 | 65% | 
O=[N+]([O-])OCCCCC(O)(P(=O)(O)O)P(=O)(O)O | < 1.5 | 2.85 | 6.83 | 11.3 | 59.6 | 32.8 |  |  | 43.4% | 
CCCCCN(C)CCC(O)(P(=O)(O)O)P(=O)(O)O [IBANDRONIC ACID] |  |  |  |  | 34.2 | 39.8 |  |  |  | 
O=P(O)(O)C(Sc1ccc(Cl)cc1)P(=O)(O)O | < 1.5 | 2.27 | 6.31 | 10.6 |  |  |  |  | 58.4% | 
CC(C)C[C@H](NC(=O)[C@H](CCCCN)NC(=O)CNC(=O)[C@H](CC(C)C)NC(=O)[C@@H](NC(=O)[C@@H]1CSSC[C@H](N)C(=O)N[C@@H](CO)C(=O)N[C@@H](CC(N)=O)C(=O)N[C@@H](CC(C)C)C(=O)N[C@@H](CO)C(=O)N[C@@H]([C@@H](C)O)C(=O)N1)C(C)C)C(=O)N[C@@H](CO)C(=O)N[C@@H](CCC(N)=O)C(=O)N[C@@H](CCC(=O)O)C(=O)N[C@@H](CC(C)C)C(=O)N[C@@H](Cc1c[nH]cn1)C(=O)N[C@@H](CCCCN)C(=O)N[C@@H](CC(C)C)C(=O)N[C@@H](CCC(N)=O)C(=O)N[C@H](C(=O)N[C@@H](Cc1ccc(O)cc1)C(=O)N1CCC[C@H]1C(=O)N[C@@H](CCCNC(=N)N)C(=O)N[C@H](C(=O)N[C@@H](CC(N)=O)C(=O)N[C@H](C(=O)NCC(=O)N[C@@H](CO)C(=O)NCC(=O)N[C@H](C(=O)N1CCC[C@H]1C(N)=O)[C@@H](C)O)[C@@H](C)O)[C@@H](C)O)[C@@H](C)O [CALCITONIN SALMON] |  |  |  |  |  |  | 27.5 |  |  | 0.01
CCCCC(P(=O)(O)O)P(=O)(O)O |  |  |  |  | 62.4 | 61.2 |  |  |  | 
